Source: patent publication US8263598B2, “Substituted sulfonamide compounds” (Gruenenthal GmbH, priority 2008, dated 2012)

Assays:
[1] = target: T1, human B1R receptor (hB1R) (Homo sapiens, UniProt P46663); assay: FLIPR Ca2+ assay on human bradykinin 1 receptor (CHO K1 hB1R cells); format: cell-based; conditions: test substance 10 μM; CHO K1 cells with human B1R gene; agonist Lys-Des-Arg9-bradykinin 0.5 nM; compared to maximum achievable inhibition
T1 construct: host or cells: CHO K1 cells
T1 sequence (P46663 1-353): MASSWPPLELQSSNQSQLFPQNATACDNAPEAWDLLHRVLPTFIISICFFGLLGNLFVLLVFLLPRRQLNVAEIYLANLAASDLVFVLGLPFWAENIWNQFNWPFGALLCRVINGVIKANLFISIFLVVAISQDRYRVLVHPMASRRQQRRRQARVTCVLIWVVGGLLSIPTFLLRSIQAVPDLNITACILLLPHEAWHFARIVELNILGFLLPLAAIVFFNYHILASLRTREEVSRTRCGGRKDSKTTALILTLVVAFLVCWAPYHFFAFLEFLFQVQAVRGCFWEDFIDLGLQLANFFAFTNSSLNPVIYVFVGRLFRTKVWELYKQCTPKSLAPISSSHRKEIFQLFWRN
Outline: (§1)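 Values are percent inhibition of agonist-evoked Ca²⁺ influx, measured by Fluo-4 fluorescence peak in FLIPR relative to maximum achievable inhibition. Compound at 10 μM was preincubated 10 min on B1R-transfected CHO K1 cells before challenge with 0.5 nM Lys-Des-Arg9-bradykinin (human) or 100 nM Des-Arg9-bradykinin (rat).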

[2] = target: T2, B1R receptor of rats (rB1R) (Rattus norvegicus, UniProt P97583); assay: FLIPR Ca2+ assay on rat bradykinin 1 receptor (CHO K1 rB1R cells); format: cell-based; conditions: test substance 10 μM; CHO K1 cells with B1R gene of rats; agonist Des-Arg9-bradykinin 100 nM; compared to maximum achievable inhibition
T2 construct: host or cells: CHO K1 cells
T2 sequence (P97583 1-337): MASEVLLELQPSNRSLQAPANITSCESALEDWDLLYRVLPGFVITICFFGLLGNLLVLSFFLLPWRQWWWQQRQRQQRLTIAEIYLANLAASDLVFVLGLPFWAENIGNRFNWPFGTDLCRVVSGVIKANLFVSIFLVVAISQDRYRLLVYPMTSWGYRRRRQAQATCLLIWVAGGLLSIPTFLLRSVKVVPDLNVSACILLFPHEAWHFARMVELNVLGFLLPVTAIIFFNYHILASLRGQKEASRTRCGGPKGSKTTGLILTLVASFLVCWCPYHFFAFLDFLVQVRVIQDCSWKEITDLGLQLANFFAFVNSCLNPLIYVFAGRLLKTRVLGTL
Outline: as §1

| inhibition at 10 µM [1] [%] | inhibition at 10 µM [2] [%] | Structure (SMILES) |
| --- | --- | --- |
| 100 | 99 | COc1cc(C)c(S(=O)(=O)N(C)CCOCC(=O)N2CCn3c(Cc4ccncc4)ccc3C2)c(C)c1 [Example 165, 4-Methoxy-N,2,6-trimethyl-N-(2-(2-oxo-2-(6-(pyridin-4-ylmethyl)-3,4-dihydropyrrolo[1,2-a]pyrazin-2(1H)-yl)ethoxy)ethyl)benzenesulfonamide] |
| 39 | 69 | COc1cc(C)c(S(=O)(=O)N(CCOCC(=O)N2CCn3cccc3C2c2ccc(C)c(C)c2)Cc2ccccc2)c(C)c1 (centres unmarked) [Example 49, N-benzyl-N-(2-(2-(1-(3,4-dimethylphenyl)-3,4-dihydropyrrolo[1,2-a]pyrazin-2(1H)-yl)-2-oxoethoxy)ethyl)-4-methoxy-2,6-dimethylbenzenesulfonamide] |
| 98 | 103 | CCC1c2cccn2CCN1C(=O)COCCN(CC(C)C)S(=O)(=O)c1c(C)cc(OC)c(C)c1C (centres unmarked) [Example 100, N-(2-(2-(1-ethyl-3,4-dihydropyrrolo[1,2-a]pyrazin-2(1H)-yl)-2-oxoethoxy)ethyl)-N-isobutyl-4-methoxy-2,3,6-trimethylbenzenesulfonamide] |
| 105 | 102 | COc1cc(C)c(S(=O)(=O)N(C)CCOCC(=O)N2CCn3cccc3C2CCc2ccccc2)c(C)c1 (centres unmarked) [Example 133, 4-methoxy-N,2,6-trimethyl-N-(2-(2-oxo-2-(1-phenethyl-3,4-dihydropyrrolo[1,2-a]pyrazin-2(1H)-yl)ethoxy)ethyl)benzenesulfonamide] |
| 75 | 101 | COc1cc(C)c(S(=O)(=O)N(CCOCC(=O)N2CCn3cccc3C2C(C)C)Cc2ccccc2)c(C)c1 (centres unmarked) [Example 155, N-benzyl-N-(2-(2-(1-isopropyl-3,4-dihydropyrrolo[1,2-a]pyrazin-2(1H)-yl)-2-oxoethoxy)ethyl)-4-methoxy-2,6-dimethylbenzenesulfonamide] |
| 32 | 77 | Cc1cc(C)c(S(=O)(=O)N(C)CCOCC(=O)N2CCn3cccc3C2c2ccc(C(C)(C)C)cc2)c(C)c1 (centres unmarked) [Example 78, N-(2-(2-(1-(4-tert-butylphenyl)-3,4-dihydropyrrolo[1,2-a]pyrazin-2(1H)-yl)-2-oxoethoxy)ethyl)-N,2,4,6-tetramethylbenzenesulfonamide] |
| 78 | 99 | COc1c(C)cc(S(=O)(=O)N(C)CCOCC(=O)N2CCn3cccc3C2c2ccccc2)c(C)c1C (centres unmarked) [Example 32, 4-methoxy-N,2,3,5-tetramethyl-N-(2-(2-oxo-2-(1-phenyl-3,4-dihydropyrrolo[1,2-a]pyrazin-2(1H)-yl)ethoxy)ethyl)benzenesulfonamide] |
| 102 | 102 | COc1cc(C)c(S(=O)(=O)N(CCOCC(=O)N2CCn3c(CN4CCCC4)ccc3C2c2ccccc2)CC(C)C)c(C)c1C (centres unmarked) [Example 92, N-isobutyl-4-methoxy-2,3,6-trimethyl-N-(2-(2-oxo-2-(1-phenyl-6-(pyrrolidin-1-ylmethyl)-3,4-dihydropyrrolo[1,2-a]pyrazin-2(1H)-yl)ethoxy)ethyl)benzene-sulfonamide] |
| 104 | 103 | CCC1c2ccc(CN(C)C)n2CCN1C(=O)COCCN(C)S(=O)(=O)c1c(C)cc(C)cc1C (centres unmarked) [Example 145, N-(2-(2-(6-((dimethylamino)methyl)-1-ethyl-3,4-dihydropyrrolo[1,2-a]pyrazin-2(1H)-yl)-2-oxoethoxy)ethyl)-N,2,4,6-tetramethylbenzenesulfonamide] |
| 97 | 43 | COc1cccc(C2c3cccn3CCN2C(=O)COCCN(C)S(=O)(=O)c2cc(C)c(OC)c(C)c2C)c1 (centres unmarked) [Example 38, 4-methoxy-N-(2-(2-(1-(3-methoxyphenyl)-3,4-dihydropyrrolo[1,2-a]pyrazin-2(1H)-yl)-2-oxoethoxy)ethyl)-N,2,3,5-tetramethylbenzenesulfonamide] |
| 99 | 97 | O=C(C[C@@H](NS(=O)(=O)c1ccc2ccccc2c1)c1ccccc1)N1CCn2c(nc(CN3CCCCC3)c2Cl)C1 [Example 5, (R)-N-(3-(3-chloro-2-(piperidin-1-ylmethyl)-5,6-dihydroimidazo[1,2-a]pyrazin-7(8H)-yl)-3-oxo-1-phenylpropyl)naphthalene-2-sulfonamide] |
| 104 | 102 | COc1cc(C)c(S(=O)(=O)N(CCOCC(=O)N2CCn3c(CN4CCOCC4)ccc3C2c2ccccc2)CC(C)C)c(C)c1C (centres unmarked) [Example 94, N-isobutyl-4-methoxy-2,3,6-trimethyl-N-(2-(2-(6-(morpholinomethyl)-1-phenyl-3,4-dihydropyrrolo[1,2-a]pyrazin-2(1H)-yl)-2-oxoethoxy)ethyl)benzene-sulfonamide] |
| 103 | 101 | Cc1cc(C)c(S(=O)(=O)N(C)CCOCC(=O)N2CCn3c(CN4CCOCC4)ccc3C2c2ccccc2)c(C)c1 (centres unmarked) [Example 142, N,2,4,6-tetramethyl-N-(2-(2-(6-(morpholinomethyl)-1-phenyl-3,4-dihydro-pyrrolo[1,2-a]pyrazin-2(1H)-yl)-2-oxoethoxy)ethyl)benzenesulfonamide] |
| 37 | 81 | COc1c(C)cc(S(=O)(=O)N(C)CCOCC(=O)N2CCn3cccc3C2C)c(C)c1C (centres unmarked) [Example 28, 4-methoxy-N,2,3,5-tetramethyl-N-(2-(2-(1-methyl-3,4-dihydropyrrolo[1,2-a]pyrazin-2(1H)-yl)-2-oxoethoxy)ethyl)benzenesulfonamide] |
| 102 | 102 | CCCC1c2cccn2CCN1C(=O)COCCN(C)S(=O)(=O)c1c(C)cc(C)cc1C (centres unmarked) [Example 146, N,2,4,6-tetramethyl-N-(2-(2-oxo-2-(1-propyl-3,4-dihydropyrrolo[1,2-a]pyrazin-2(1H)-yl)ethoxy)ethyl)benzenesulfonamide] |
| 101 | 101 | CCC1c2ccc(CN(C)C)n2CCN1C(=O)COCCN(Cc1ccccc1)S(=O)(=O)c1c(C)cc(OC)cc1C (centres unmarked) [Example 131, N-benzyl-N-(2-(2-(6-((dimethylamino)methyl)-1-ethyl-3,4-dihydropyrrolo[1,2-a]pyrazin-2(1H)-yl)-2-oxoethoxy)ethyl)-4-methoxy-2,6-dimethylbenzene-sulfonamide] |
| 97 | 85 | COc1c(C)cc(S(=O)(=O)N(C)CCOCC(=O)N2CCn3cccc3C2c2cccs2)c(C)c1C (centres unmarked) [Example 36, 4-methoxy-N,2,3,5-tetramethyl-N-(2-(2-oxo-2-(1-(thiophen-2-yl)-3,4-dihydropyrrolo[1,2-a]pyrazin-2(1H)-yl)ethoxy)ethyl)benzenesulfonamide] |
| 103 | 102 | COc1cc(C)c(S(=O)(=O)N(C)CCOCC(=O)N2CCn3c(CN4CCCC4)ccc3C2)c(C)c1 [Example 11, 4-methoxy-N,2,6-trimethyl-N-(2-(2-oxo-2-(6-(pyrrolidin-1-ylmethyl)-3,4-dihydropyrrolo[1,2-a]pyrazin-2(1H)-yl)ethoxy)ethyl)benzenesulfonamide] |
| 25 | 78 | COc1cc(C)c(S(=O)(=O)N(CCOCC(=O)N2CCn3cccc3C2CCc2ccccc2)Cc2ccccc2)c(C)c1 (centres unmarked) [Example 125, N-benzyl-4-methoxy-2,6-dimethyl-N-(2-(2-oxo-2-(1-phenethyl-3,4-dihydropyrrolo[1,2-a]pyrazin-2(1H)-yl)ethoxy)ethyl)benzenesulfonamide] |
| 83 | 99 | COc1cc(C)c(S(=O)(=O)N(CCOCC(=O)N2CCn3cccc3C2C)Cc2ccccc2)c(C)c1 (centres unmarked) [Example 45, N-benzyl-4-methoxy-2,6-dimethyl-N-(2-(2-(1-methyl-3,4-dihydropyrrolo[1,2-a]pyrazin-2(1H)-yl)-2-oxoethoxy)ethyl)benzenesulfonamide] |
| 104 | 102 | CCC1c2cccn2CCN1C(=O)COCCN(C)S(=O)(=O)c1c(C)cc(OC)cc1C (centres unmarked) [Example 135, N-(2-(2-(1-ethyl-3,4-dihydropyrrolo[1,2-a]pyrazin-2(1H)-yl)-2-oxoethoxy)ethyl)-4-methoxy-N,2,6-trimethylbenzenesulfonamide] |
| 47 | 97 | COc1cc(C)c(S(=O)(=O)N(CCOCC(=O)N2CCn3cccc3C2c2ccccc2)CC(C)C)c(C)c1C (centres unmarked) [Example 23, N-isobutyl-4-methoxy-2,3,6-trimethyl-N-(2-(2-oxo-2-(1-phenyl-3,4-dihydropyrrolo[1,2-a]pyrazin-2(1H)-yl)ethoxy)ethyl)benzenesulfonamide] |
